We go through eight compounds from US11980612B2, “Synergistic anti-inflammatory compositions” (The Procter & Gamble Company, priority 2020, dated 2024).

Several values for one entry are separate records, joined by “and”; a condition that tells them apart may be missing. Equal values may be shown once.

For series [1], the system named is PGE2 release from TERT keratinocytes (tKC). Kind of series: PGE2 assay: inhibition of PGE2 release from UVB-stressed TERT keratinocytes, normalized to ATP. It is filed as cell-based, human. As to conditions: PO 1 × 10−7 w/v %, actives alone or combination (observed), 15 mJ/cm2 UVB, 18-24 hours. The source says: Inhibiting the Cell's Inflammation Response to a Stressor-Prostaglandin E2 (“PGE2”) Assay.
PGE2 is a hormone-like substance that is known to participate in modulation of inflammation. Cellular inflammation is associated with a variety of hair, skin and scalp conditions, and thus inhibiting PGE2 activation vis-à-vis cellular inflammation may help treat these types of hair, skin and scalp conditions.
TERT keratinocytes (“tKC” are human keratinocytes which have been transfected with the human telomerase reverse transcriptase gene to immortalize the cells) were obtained from Jerry Shay, University of Texas, Southwestern and plated at 40,000 cells/well into 24-well plates in 1 ml/well volume. EpiLife Medium (Life Technologies cat #MEPICFPRF500) supplemented with keratinocyte growth supplement (Life technologies cat #S-001-5) was used as the assay media. The cells were grown to confluence/near confluence, (typically 24 hours after plating 40,000 cells/well in 24 well plate) and then subjected to 15 mJ/cm^2 UVB-stress (typically […] in BioSun). The test compositions (strobilurins, piroctone olamine, strobilurins+piroctone olamine, and positive control 10 uM idebenone) were added to replace the medium (EpiLife Medium with 0.1% final concentration of DMSO—briefly, 1000× stocks of actives and combinations made in 100% DMSO and diluted into Epilife media 1 to 1000), and the plates were incubated for 18-24 hours.
The supernatant is removed from each well, and the cells are rinsed with 2 ml/well medium (without supplements). A Cell Titer-Glo assay (Promega cat #G7571; Madison WI) is used to measure ATP activity, is conducted on the cells for normalization. The supernatant is tested in a PGE2 assay (Prostaglandin E2 Assay kit from Cisbio Bioassays cat #62P2APEB) according to the manufacturer's instructions. The PGE2 results are normalized to ATP activity. The PGE2 quantitation (pg/mL) from the supernatant is divided by the normalization factor (treatment ATP/control ATP).
Example Calculation to Compute PGE2 Inhibition by Strobilurin: • Luminescence of vehicle control in ATP assay=704567 • Luminescence of strobilurin treatment in ATP assay=678903 • Normalization factor for strobilurin treatment=1.038 • PGE2 quantitation for vehicle control=2458 pg/mL PGE2 • PGE2 quantitation for strobilurin treatment=2347 pg/mL PGE2 • Normalized PGE2 values • control=2458/1=2458 • strobilurin=2347/1.038=2261 • % inhibition for strobilurin=[100×(2458−[…])/2458]=8%
Student's T-Test (equal variance, 2 sided) are used to calculate p-values between observed combinations and expected combinations with p-value<0.05 considered statistically significant. Expected combination values are calculated by adding the PGE2 inhibition values of strobilurins alone and piroctone olamine alone. Synergy factor is simply the ratio of observed combination/expected combination. Synergy factors greater than 1.0 with a p-value<0.05 are deemed synergistic.

For series [2] the following is noted: general statement, no method; cited from earlier work.
Setting [3] is: strobilurin 1 × 10−7 w/v %, strobilurin:PO ratio 1:1.
Where [4] appears, read: strobilurin 1 × 10−8 w/v %, strobilurin:PO ratio 1:10.
The mark [5] stands for this setting: strobilurin 1 × 10−9 w/v %, strobilurin:PO ratio 1:50.
Where [6] appears, read: strobilurin 4 × 10−7 w/v %, strobilurin:PO ratio 4:1.

For `Cc1cc(CC(C)CC(C)(C)C)n(O)c(=O)c1.NCCO` (stereo not drawn) [PO, piroctone olamine], the “% PGE2 Inhibition” value in series [1] (setting [3]) is 3.2%; in series [1] (setting [4]), 2.6%; in series [1] (setting [5]), 2.4%; in series [1] (setting [6]) it was 2.8% and 2.2%.

In the case of `CO/C=C(/C(=O)OC)c1ccccc1Oc1cc(Oc2ccccc2C#N)ncn1` [azoxystrobin], the “% PGE2 Inhibition” value in series [1] (setting [3]) is recorded as 8%; in series [1] (setting [4]), 1%; in series [1] (setting [5]), 1%; in series [1] (setting [6]), 13%. In addition, the solubility in water entry in series [2] is reported as “low solubility in water”.

On to `CNC(=O)/C(=N/OC)c1ccccc1COc1cc(C)ccc1C` [dimoxystrobin], for which the “% PGE2 Inhibition” value is reported as 18.9% in series [1] (setting [3]), 7.6% in series [1] (setting [4]), 4.1% in series [1] (setting [5]) and 12.4% in series [1] (setting [6]).

Take `CO/N=C(/C1=NOCCO1)c1ccccc1Oc1ncnc(Oc2ccccc2Cl)c1F` [fluoxastrobin]: the “% PGE2 Inhibition” value in series [1] (setting [3]) is given as 5.6%; in series [1] (setting [4]), 3.3%; in series [1] (setting [5]) it was 1%; in series [1] (setting [6]) it was 8.6%.

In the case of `CO/N=C(/C(=O)OC)c1ccccc1COc1ccccc1C` [kresoxim methyl], the “% PGE2 Inhibition” value in series [1] (setting [3]) came to 4.1%; in series [1] (setting [4]), 7.3%; in series [1] (setting [5]), 3.2%; in series [1] (setting [6]), 6.7%.

Turning to `CNC(=O)/C(=N/OC)c1ccccc1CO/N=C(C)/C(=N/OC)C(/C)=N/OC` [orysastrobin], the “% PGE2 Inhibition” value stood at 8.2% in series [1] (setting [3]), 15.6% in series [1] (setting [4]), 1.1% in series [1] (setting [5]) and 4.7% in series [1] (setting [6]).

For the compound `CO/C=C(/C(=O)OC)c1ccccc1COc1cccc(C(F)(F)F)n1` [picoxystrobin], the “% PGE2 Inhibition” value in series [1] (setting [3]) is on record as 2.5%; in series [1] (setting [4]), 8.4%; in series [1] (setting [5]), 8.9%; in series [1] (setting [6]), 16.7%.

Turning to `CON=C(C(=O)OC)c1ccccc1CON=C(C)c1cccc(C(F)(F)F)c1` [trifloxystrobin], the “% PGE2 Inhibition” value in series [1] (setting [3]) is listed as 3.2%; in series [1] (setting [4]) it was 0.5%; in series [1] (setting [5]), 0.7%; in series [1] (setting [6]), 8.3%.
